Data on twelve substances can be found in patent US20110171312A1, “MODIFIED THERAPEUTIC PEPTIDES, METHODS OF THEIR PREPARATION AND USE” (Nektar Therapeutics, priority 2008, published 2011).

Values joined by “and” are separate entries in the source; they are usually repeats but may differ in a detail not shown here. Equal values may be shown once. “Also recorded” adds a separate entry of the source. Read-outs that look alike come from different tables or passages of the source. Where only a bound is given, the exact number is not on record here.

In data set [1] the test system is Sprague-Dawley rats. Particulars: for dose adequate to reduce blood glucose to the target (40-60 mg/dl): insulin mass; for Cmin (minimum blood glucose concentration) / Tmin (time to Cmin): 15 μg/animal.
Description: The first phase established a dose of the compound required to achieve a target blood glucose reduction. This target blood glucose reduction was chosen to be the minimum reduction that is clearly recognizable as different from the resting blood glucose concentration.
The second phase examined the pharmacokinetics/pharmacodynamics of the molecule when administered to rats at the selected dose over an observation time sufficient for the glucose to return to baseline.
These experiments were conducted on male adult Sprague-Dawley rats of approximately 0.30-0.40 kg. Animals were obtained pre-cannulated with a jugular vein catheter (JVC) for blood sampling and, in the case of IV administration, and additional femoral vein catheter (FVC).
Intravenous administration of compounds was made via a femoral catheter in a volume of 300 μl.
Sample Collection was performed as follows. Blood samples of approximately 0.50 mL were collected from the JVC using a 1 mL syringe at each time point. A new syringe was used for each time point along with precautions to prevent contamination and carry-over.
The glucose monitoring was conducted as follows. Approximately 20 μL of whole blood was touched to the end of the glucose test strip of 2 Glucometer Elite glucose monitors for a duplicate determination of blood glucose concentrations. If there was a discrepancy of greater than 5 mg/dl, a third reading was taken.
The sample for compound quantitation in plasma, which served as basis for the PK analysis, was collected and processed as follows. The volume of blood remaining after the glucose measurement (˜480 μL) was anticoagulated with K2 EDTA and centrifuged to recover plasma. The plasma was collected and stored at −80° C. until analysis.
Data set [2] has as its system Sprague-Dawley rats. The data set is described as follows: Glucose depression after intravenous injection of PEG-insulins (Example 23). The class given is in vivo, rat. Particulars: for glucose depression (in vivo activity) in comparison to regular insulin: 20 μg/animal equivalent insulin mass (FIG. 8a). How it is done:
The API concentration in the stock solutions was determined post-dosing by UV/VIS spectroscopy. All stock solutions were prepared on the study initiation day.
Whole blood (0.5 mL) was collected from the jugular vein catheter and placed into serum separator tubes at pre-dose (2 to 0.25 hours prior to dosing) and post-dose time points. After the sample was collected, an equivalent volume of PBS was administered, the catheter lumen was filled with 100 μL of heparinized PBS, and the cannula hub was plugged with a cotton applicator tip soaked in heparinized saline.
A small amount of whole blood was placed on the glucose test strip for blood glucose determination. The remainder of the sample was separated into serum by centrifugation for 10 minutes at 13,000 rpm. The serum was drawn off into a new Eppendorf tubes. The serum samples were stored at −20° C. on dry ice until shipped, and then stored at −80° C. until analysis.
The test and control insulin-containing articles were dissolved in saline (pH 7.4) and injected as an IV bolus into Sprague-Dawley rats. Prior to administration, the rats were lightly anesthetized for approximately 3-5 minutes in a Plexiglas induction chamber by inhaled 3.0-5.0% isoflurane mixed with air. The femoral vein catheter (FVC) was used for IV drug administration and the jugular vein catheter (JVC) was used for venous blood sampling to ensure no cross-contamination occurred.
A 1 mL syringe was fitted into the cannula, and the heparinized phosphate buffered saline solution present in the catheter lumen was removed by drawing back on the syringe plunger until blood filled the hub of the syringe. The heparinized phosphate buffered saline solution and the syringe were discarded and replaced by a new 1 mL syringe containing the appropriate IV dosing volume. The IV dose was then slowly and completely administered to the animal. The cannula was immediately flushed with 300 μL of phosphate buffered saline after dose administration. Blood was withdrawn from an indwelling catheter over a three-hour period. All drug doses refer to equivalent insulin mass delivered to the animals.
This study was designed to obtain a broad sense of the activity of the compounds rather than serve as an accurate activity measurement.

A further data set deals with rats. Kind of data set: Glucose suppression / pulmonary absorption after intratracheal administration of PEG-insulins (Example 23). The format is in vivo, rat. Particulars: for glucose suppression profile compared to insulin control: 20-80 μg/animal equivalent insulin mass (FIGS. 8b, 9b, 10-12). The text has this:
In the sections below, an effort is made to compare PEG-insulin preparations with respect to PEG molecular weight, PEGylation site, and chemistry. However, an accurate comparison was not always possible due to the presence of multiple PEG-insulin species in the preparations. Also, it could be that observed differences are due to differences in binding affinity to the receptor rather than absorption per se.
PEGylated insulins were examined that were all derivatized in positions B1 or B29 using the same PEG active agent (SPA). The actual synthetic routes to generate specific B1 or B29 isomers were different. Data for B1-5000-PEG-Insulin, 750-lot 2-PEG-insulin and 2K-lot 2-PEG-Insulin and 750-lot 5-PEG-insulin; their respective glucose suppression curves are shown in FIGS. 10 and 8b.
The results are illustrated in FIG. 11.
The impact of acetylation with PEGylation on insulin absorption through the lungs was evaluated. Acetylated derivatives were produced at different levels of acetylation and were all PEGylated at the same position (B1) with the same MW PEG (750 Da): 750-lot A1- and 750-lot A2-PEG-insulin (details are given in Table 2). The results are illustrated in FIG. 12.

Data set [3] deals with Sprague-Dawley rats. The data set is described as follows: Dose determination and PK/PD after intratracheal instillation (Example 25). The format is in vivo, rat. Particulars: for dose adequate to reach the target nadir glucose suppression: intratracheal instillation, dose ranging leg; for Cmin (minimum blood glucose concentration) / Tmin (time to Cmin): intratracheal, 180, 240, 640 μg/animal for 2K, 3K, 5K (Table 6). On the procedure: A spectrometric measurement of compound concentration was also made.
Intratracheal Instillation (IT) was conducted as follows.
Sample Collection was performed as follows.
The glucose monitoring was conducted as follows.
The experimental protocol was modified for the analysis of the acetylated compounds. This resulted from the intent to use LC/MS-MS for the quantitation of compound concentrations in plasma. This analytical technique requires a larger volume of plasma to permit concentration of the sample and achieve the requisite increase in sensitivity. […] The protocol was therefore modified to increase the number of animals by two-fold and split the samples between these two cohorts.
To explore the data further, the PK profiles after IT doses were deconvoluted using IV PK parameters using the Wagner Nelson deconvolution procedure, to generate the cumulative absorption profile (FIG. 32).

For another data set, the system named is beagle dogs. Particulars: glucose clamp.
For data set [4], the system named is Sprague-Dawley rats.
Protocol: The liquid formulation was prepared in Dulbecco's phosphate buffered saline (DPBS) for IT administration. […] The dose was administered at a fixed volume of 300 μL; as a result, dosing solutions were prepared within 2 hours of administration by dilution of the stock solution.
The lowest dose that met the criteria of achieving nadir blood glucose concentrations between approximately 40 and 60 mg/dL in the first 4 hours after compound administration was chosen for the second leg of the study.
The test system included 19 pre-cannulated (jugular vein catheter (JVC)) adult male fasted (˜15-20 hours) Sprague-Dawley rats (Hilltop Lab Animals, Inc., Scottdale, Pa.). Ten animals weighing between 0.285-0.308 kg were used for the dose-ranging leg and 9 animals weighing between 0.288-0.313 kg were used for the PK/PD leg. Prior to dosing, the rats were lightly anesthetized by inhaled Isoflurane (Abbott Laboratories, Chicago, Ill.). […] Two readings of whole blood glucose concentration (mg/dL) per time point were made using a Glucometer Elite glucose monitor (Bayer Corp., Elkhart, Ind.). […] Pharmacodynamic analysis was performed using Microsoft Office Excel 2003.
Where [5] appears, read: rats, IT, 80 μg/animal, Group 1.
The mark [6] stands for this setting: rats, IT, 160 μg/animal, Group 1.
Setting [7] is: rats, IT, 200 μg/animal, Group 1.
Setting [8] is: rats, IT, 270 μg/animal, Group 1.
Setting [9] is: rats, IT, 270 μg/animal, Group 2 (PK/PD leg).
The mark [10] stands for this setting: rats, IT, 381 μg/animal, Group 1.
The mark [11] stands for this setting: rats, IT, 381 μg/animal, Group 1, euthanized at 4 hr.

Protocol for beagle dogs: The glucose clamp technique involved the continuous infusion of a 50% glucose solution at a rate such that normal serum glucose values were maintained throughout the experiment (e.g., normal range is 80-100 mg/dl).
Glucagon was also infused to maintain normal serum physiologic concentrations. […] Blood was withdrawn from an indwelling catheter over a 10-hour period.

For “AKZO insulin: reference compound AKZO NOBEL Human Insulin [reference compound]”, the “time by which blood glucose was back to baseline” value with Sprague-Dawley rats [1] (rats, intravenous (AKZO insulin 1-6 μg/rat; PEG-B1 insulins 15 μg/rat)) is no more than 90 min. Moreover, in the data set on Sprague-Dawley rats [1] (rats, intravenous, all doses 1-6 μg/rat), the “Glucose Tmin” value was determined as 15 min. In addition, the “dose adequate to reduce blood glucose to the target (40-60 mg/dl)” value (shortened to “dose adequate to reduce blood glucose”) in the data set on Sprague-Dawley rats [1] (rats, intravenous) is on record as 3 μg/rat.
Regarding “N^αA1,N^εB29-{3-[methoxy(ethoxy)2K]propionyl}insulin [2000-PEG-insulin]”, the “glucose depression (in vivo activity) in comparison to regular insulin” value (from here on “glucose depression (in vivo activity)”) in the data set on Sprague-Dawley rats [2] is recorded as “deviations were significant”.
On to “N^αA1,N^εB29-{3-[methoxy(ethoxy)550]propionyl}insulin [550-lot 1-PEG-insulin]”, for which the “glucose suppression profile compared to insulin control” value in the data set with rats is “much of the glucose suppression activity of insulin is restored”.
With “N^αA1,N^εB29-{3-[methoxy(ethoxy)750]propionyl}insulin [750-lot 3-PEG-insulin]”, the “glucose suppression profile compared to insulin control” value in the data set with rats is on record as “prolonged systemic glucose suppression compared to the insulin control”.
As for “N^αA1,N^εB29-{3-[methoxy(ethoxy)750]propionyl}insulin [750-lot 4-PEG-insulin]”, in the data set with Sprague-Dawley rats [2] (80 μg insulin/animal (FIG. 9a)), the “reduction of insulin activity” value was “about 50%”.
For the substance “N^αB1-{3-[methoxy(ethoxy)2K]propionyl}insulin [PEG2000-B1 Insulin]”, in the data set on Sprague-Dawley rats [3], the “dose adequate to reach the target nadir glucose suppression” value is recorded as 180 μg/rat, the “Cmin (minimum blood glucose concentration)” value was found to be 38 ± 9 mg/dL and the “Tmin (time to Cmin)” value came to 290 ± 171 min. In the data set on Sprague-Dawley rats [3] (intratracheal, selected dose), the “time up to which blood glucose is still suppressed (not back to baseline)” value (“time up … (not back to baseline)” below) is no less than 9 h. In the data set with Sprague-Dawley rats [1] (rats, intravenous), the “Cmin (minimum blood glucose concentration)” value was found to be 42 ± 13 mg/dL, the “Tmin (time to Cmin)” value is 33 ± 15 min and the “dose adequate to reduce blood glucose” value turned out to be 15 μg/rat. Besides, the “Cmin (minimum blood glucose concentration)” value in the data set on Sprague-Dawley rats [1] (rats, intravenous, listed as PEG2000-B1) is given as 42 mg/dL.
For the substance “N^αB1-{3-[methoxy(ethoxy)3K]propionyl}insulin [PEG3000-B1 Insulin]”, in the data set on Sprague-Dawley rats [3], the “dose adequate to reach the target nadir glucose suppression” value is 240 μg/rat, the “Cmin (minimum blood glucose concentration)” value amounted to 45 ± 18 mg/dL and the “Tmin (time to Cmin)” value was 170 ± 96 min. The “time up … (not back to baseline)” value in the data set with Sprague-Dawley rats [3] (intratracheal, selected dose) is no less than 9 h. Besides, in the data set on Sprague-Dawley rats [1] (rats, intravenous), the “Cmin (minimum blood glucose concentration)” value was determined as 36 ± 11 mg/dL, the “Tmin (time to Cmin)” value was 24 ± 12 min and the “dose adequate to reduce blood glucose” value was 15 μg/rat. Further, the “Cmin (minimum blood glucose concentration)” value with Sprague-Dawley rats [1] (rats, intravenous, listed as PEG3000-B1) is recorded as 36 mg/dL.
As to “N^αB1-{3-[methoxy(ethoxy)5K]propionyl}insulin [PEG5000-B1 Insulin]”, in the data set with Sprague-Dawley rats [3], the “dose adequate to reach the target nadir glucose suppression” value is 640 μg/rat, the “Cmin (minimum blood glucose concentration)” value was found to be 37 ± 3 mg/dL and the “Tmin (time to Cmin)” value came to 480 ± 0 min. Besides, in the data set with Sprague-Dawley rats [3] (intratracheal, selected dose), the “time to reach Cmin (Tmin)” value was determined as 8 h and the “time up … (not back to baseline)” value was no less than 16 h. Also, the “time glucose remains below euglycemic levels” value in the data set on rats (40 μg/animal, no data beyond 6 hours) was “at least 6 hours”. Also, the “glucose suppression profile compared to insulin control” value in the data set with rats is listed as “little systemic glucose suppression compared to the insulin control”. Further, in the data set on Sprague-Dawley rats [1] (rat, in vivo, iv), the “time by which plasma concentration falls below the limit of quantitation” value is no more than 6 h. In addition, in the data set with Sprague-Dawley rats [1] (rats, intravenous), the “Cmin (minimum blood glucose concentration)” value stood at 42 ± 9 mg/dL, the “Tmin (time to Cmin)” value came out at 24 ± 8 min and the “dose adequate to reduce blood glucose” value is reported as 15 μg/rat. Further, in the data set on Sprague-Dawley rats [1] (rats, intravenous, listed as PEG5000-B1), the “Cmin (minimum blood glucose concentration)” value is listed as 42 mg/dL. Moreover, the “glucose depression (in vivo activity)” value in the data set on Sprague-Dawley rats [2] was “smaller glucose depression in comparison to regular insulin”.
For the substance “N^αB1-{3-[methoxy(ethoxy)750]propionyl}insulin [750-lot 2-PEG-insulin]”, in the data set with rats (80 μg insulin equivalent), the “time at which glucose suppression reaches nadir” value worked out at 6 h and the “time of return of glucose to baseline” value is no less than 12 h. Moreover, the “glucose suppression profile compared to insulin control” value in the data set on rats is reported as “prolonged glucose suppression profile; also recorded: prolonged systemic glucose suppression compared to the insulin control”. In addition, in the data set on Sprague-Dawley rats [2], the “glucose depression (in vivo activity)” value is reported as “smaller glucose depression in comparison to regular insulin”.
Take “N^εB29-{3-[methoxy(ethoxy)2K]propionyl}insulin [B29 2K-2-PEG-insulin]”: the “infused glucose required to maintain basal levels, versus insulin alone” value with beagle dogs (powder inhalation) is “required less infused glucose to maintain basal levels”. In the data set with beagle dogs (powder inhalation (FIG. 13a)), the “duration for which glucose infusion was necessary” value is 420 min.
As to “N^εB29-{3-[methoxy(ethoxy)750]proprionyl}insulin [B29 750-lot 5-PEG-insulin]”, the “glucose suppression profile compared to insulin control” value in the data set with rats (listed as B29 750 analog) is recorded as “glucose depression profile similar to the control”.
As to “di-N^αA1,N^εB29-(acetyl)-B1-{4-[methoxy(ethoxy)2K]butyryl}insulin [PEG2K-Ald-DiAc Insulin]”, in the data set on Sprague-Dawley rats [4] (rat, in vivo), the “hypoglycemia (<20 mg/dL blood glucose concentration)” value is given as “caused hypoglycemia”. Further, the “Cmin, individual animals” value with Sprague-Dawley rats [4] (setting [5]) was 78 mg/dL and 85 mg/dL; with Sprague-Dawley rats [4] (setting [6]), 86 mg/dL and 82 mg/dL; in the data set on Sprague-Dawley rats [4] (setting [7]), 109 mg/dL and 37 mg/dL; in the data set with Sprague-Dawley rats [4] (setting [8]), 31 mg/dL and 35 mg/dL; with Sprague-Dawley rats [4] (setting [11]), 20 mg/dL and 19^a mg/dL. For the same substance, the “Cmin, mean” value in the data set with Sprague-Dawley rats [4] (setting [5]) was 81 mg/dL; in the data set with Sprague-Dawley rats [4] (setting [6]) it was 84 mg/dL; in the data set on Sprague-Dawley rats [4] (setting [7]), 73 mg/dL; in the data set on Sprague-Dawley rats [4] (setting [8]), 33 mg/dL; with Sprague-Dawley rats [4] (setting [9]), 52 mg/dL and 52 ± 29 mg/dL; with Sprague-Dawley rats [4] (setting [10]) it was 20 mg/dL. Besides, the “Tmin, mean” value with Sprague-Dawley rats [4] (setting [5]) was 4.50 h; in the data set with Sprague-Dawley rats [4] (setting [6]), 6.00 h; with Sprague-Dawley rats [4] (setting [7]), 3.50 h; in the data set with Sprague-Dawley rats [4] (setting [8]) it was 5.50 h; in the data set on Sprague-Dawley rats [4] (setting [9]), 5.80 h and 5.8 ± 3.5 h; in the data set with Sprague-Dawley rats [4] (setting [10]), 4.00 h. For the same substance, the “Tmin, individual animals” value in the data set on Sprague-Dawley rats [4] (setting [6]) is 6 h; in the data set on Sprague-Dawley rats [4] (setting [8]), 3 h and 8 h; in the data set with Sprague-Dawley rats [4] (setting [11]), 4 h. In addition, the “animals in which target glucose suppression was not achieved” value with Sprague-Dawley rats [4] (rats, IT, 270 μg, PK/PD leg) was “three out of nine”. Further, the “pharmacological effect on mean blood glucose versus saline (historic data)” value in the data set on Sprague-Dawley rats [4] (rats, IT, 200-270 μg/animal) is “does have a pharmacological effect”. In addition, the “dose selected for the PK/PD leg (nadir blood glucose about 40-60 mg/dL)” value in the data set on Sprague-Dawley rats [4] (rats, IT, dose range finding leg) amounted to 270 µg.
